Experimental data taken from patent US11319279B2, “Antimicrobial compound and use thereof” (priority 2014, dated 2022).
Converted amounts (≈) assume the structure as drawn. Read-outs that look alike come from different tables or passages of the source.

Assays:
[1] = tested on: Staphylococcus aureus RN 4220; assay: MIC by broth microdilution; assay type: cell-based; conditions: RN4220, 20 h
[2] = tested on: MRSA CCARM 3167; assay: MIC by broth microdilution; assay type: cell-based, methicillin-resistant Staphylococcus aureus; conditions: for MIC: Staphylococcus aureus, MRSA CCARM 3167, MHB, 20 hours
[3] = tested on: E. coli CCARM 1356; assay: MIC by broth microdilution; assay type: cell-based, Escherichia coli; conditions: for MIC: Escherichia coli, CCARM1356, E. coli CCARM 1356, MHB, 20 hours
[4] = tested on: E. coli KTCT 1682; assay: MIC by broth microdilution; assay type: cell-based; conditions: Escherichia coli, KCTC1682; E. coli KTCT 1682 (KCTC 1682 in Table 4); MHB, 20 hours
[5] = tested on: Acinetobacter baumannii KCTC 2508; assay: MIC by broth microdilution; assay type: cell-based; conditions: KCTC2508, MHB, 20 hours
[6] = tested on: Klebsiella pneumoniae KCTC 22057; assay: MIC by broth microdilution; assay type: cell-based; conditions: KCTC22057, MHB, 20 hours
[7] = tested on: Streptococcus pneumoniae KTCT 5412; assay: MIC by broth microdilution; conditions: KCTC5412, 20 h
Procedure: (§1) A test microorganism was cultured in Mueller Hinton broth (MHB) and the antimicrobial activity was measured by the broth microdilution method. […] The compound was diluted in dimethylsulfoxide (DMSO) and the experiment was performed by adjusting the DMSO concentration to a 1/100 level. After culturing for 20 hours, the OD value was measured at 650 nm and the growth of the microorganism was examined.

[8] = tested on: Enterococcus faecalis KTCT 5191; assay: MIC by broth microdilution; conditions: for MIC: Enterococcus faecalis, KCTC5191, 20 h
Procedure: as §1

[9] = tested on: Pseudomonas aeruginosa KTCT 2004; assay: MIC by broth microdilution; conditions: KCTC2004, 20 h
Procedure: as §1

[10] = tested on: Bacillus subtilis KTCT 1661; assay: MIC by broth microdilution; assay type: cell-based
[11] = tested on: Enterococcus faecalis KTCT 3511; assay: MIC by broth microdilution; assay type: cell-based
[12] = tested on: Staphylococcus epidermidis KTCT 3958; assay: MIC by broth microdilution; assay type: cell-based
[13] = tested on: Acinetobacter calcoaceticus KTCT 2357; assay: MIC by broth microdilution; assay type: cell-based
[14] = tested on: Pseudomonas aeruginosa KTCT 2742; assay: MIC by broth microdilution; assay type: cell-based
[15] = tested on: Staphylococcus aureus 503; assay: MIC by broth microdilution; assay type: cell-based; conditions: MHB, 20 hours
[16] = tested on: Staphylococcus aureus 209; assay: MIC by broth microdilution; assay type: cell-based; conditions: MHB, 20 hours
[17] = tested on: MRSA CCARM 3506; assay: MIC by broth microdilution; assay type: cell-based, methicillin-resistant Staphylococcus aureus; conditions: Staphylococcus aureus, MHB, 20 hours
[18] = tested on: QRSA CCARM 3505; assay: MIC by broth microdilution; assay type: cell-based, quinolone-resistant Staphylococcus aureus; conditions: Staphylococcus aureus, CCARM3505, MHB, 20 hours
[19] = tested on: QRSA CCARM 3519; assay: MIC by broth microdilution; assay type: cell-based, quinolone-resistant Staphylococcus aureus; conditions: Staphylococcus aureus, CCARM3519, MHB, 20 hours
[20] = tested on: Bacillus subtilis KCTC 1021; assay: MIC by broth microdilution; assay type: cell-based; conditions: KCTC1021, MHB, 20 hours
[21] = tested on: Salmonella typhimurium KTCT 1926; assay: MIC by broth microdilution; assay type: cell-based; conditions: Salmonella enterica, MHB, 20 hours
[22] = tested on: Klebsiella aerogenes KTCT 2619; assay: MIC by broth microdilution; assay type: cell-based; conditions: KTCT2619, MHB, 20 hours
[23] = tested on: S. aureus; assay: MIC by broth microdilution, summary over S. aureus strains; assay type: cell-based; conditions: Staphylococcus aureus; range over S. aureus strains of Table 2
[24] = tested on: MRSA (CCARM3167, CCARM3506) and QRSA (CCARM 3505, CCARM 3519); assay: MIC by broth microdilution, summary over MRSA and QRSA strains; assay type: cell-based; conditions: Staphylococcus aureus; range over MRSA CCARM3167, CCARM3506 and QRSA CCARM 3505, CCARM 3519; read-out: MICs in MRSA and QRSA
[25] = tested on: Escherichia coli; assay: MIC by broth microdilution, summary over E. coli strains; assay type: cell-based; conditions: range over E. coli strains of Table 2
[26] = tested on: Klebsiella aerogenes and Pseudomonas aeruginosa; assay: MIC by broth microdilution, summary over Klebsiella and Pseudomonas strains; assay type: cell-based; conditions: range over strains of Table 2
[27] = tested on: VRE; assay: Antimicrobial activity against VRE; assay type: cell-based, vancomycin resistant enterococcus; conditions: statement in words, refers to Example 5
[28] = tested on: VISA; assay: Antimicrobial activity against VISA; assay type: cell-based, vancomycin intermediate-resistant S. aureus; conditions: statement in words, refers to Example 5

Compound | MIC [1] | MIC [2] | MIC [3] | MIC [4] | MIC [5] | MIC [6] | MIC [7] | MIC [8] | MIC [9] | also measured
COC(C(N)=O)C(NC(=O)c1ccc(NC(=O)c2ccc([N+](=O)[O-])cc2)cc1)C(=O)Nc1ccc(C(=O)Nc2ccc(C(=O)Nc3ccc(C(=O)O)c(O)c3OC(C)C)c(O)c2OC(C)C)cc1 (stereo not shown) [Coralmycin B] | 0.015 µg/mL (≈ 0.016 µM) | 0.015 µg/mL (≈ 0.016 µM) | 0.125 µg/mL (≈ 0.134 µM) | 0.125 µg/mL (≈ 0.134 µM) | 0.125 µg/mL (≈ 0.134 µM) | 2 µg/mL (≈ 2.14 µM) | 0.25 µg/mL (≈ 0.267 µM) | 0.03 µg/mL (≈ 0.0321 µM) | 4 µg/mL (≈ 4.27 µM) | higher antimicrobial activity compared to ciprofloxacin ([2]; in MRSA): at least 133 fold; higher antimicrobial activity compared to ciprofloxacin ([3]; in Escherichia coli): at least 426 fold; higher antimicrobial activity compared to ciprofloxacin ([8]; in Enterococcus faecalis): at least 16 fold
Oc1cc(Cl)ccc1Oc1ccc(Cl)cc1Cl [Triclosan, reference compound] | – | – | – | – | – | – | 64 µg/mL (≈ 221 µM) | > 64 µg/mL | > 64 µg/mL | MIC ([10]; Bacillus subtilis, KTCT1661, 20 h): 2 µg/mL (≈ 6.91 µM); MIC ([11]; Enterococcus faecalis, KTCT3511, 20 h): > 64 µg/mL; MIC ([12]; Staphylococcus epidermidis, KTCT3958, 20 h): 0.25 µg/mL (≈ 0.863 µM); MIC ([13]; Acinetobacter calcoaceticus, KTCT2357, 20 h): > 0.5 µg/mL; MIC ([14]; Pseudomonas aeruginosa, KTCT2742, 20 h): > 64 µg/mL
O=C(O)c1cn(C2CC2)c2cc(N3CCNCC3)c(F)cc2c1=O [Ciprofloxacin, reference compound] | – | 2 µg/mL (≈ 6.04 µM) | 64 µg/mL (≈ 193 µM) | 0.003 µg/mL (≈ 0.00905 µM) | – | 0.006 µg/mL (≈ 0.0181 µM) | 0.5 µg/mL (≈ 1.51 µM) | 0.5 µg/mL (≈ 1.51 µM) | 0.06 µg/mL (≈ 0.181 µM) | –
COC(C(N)=O)C(NC(=O)c1ccc(NC(=O)c2ccc([N+](=O)[O-])cc2)cc1)C(=O)Nc1ccc(C(=O)Nc2ccc(C(=O)Nc3ccc(C(=O)O)cc3OC(C)C)c(O)c2OC(C)C)cc1 (stereo not shown) [Coralmycin A] | 0.063 µg/mL (≈ 0.0685 µM) | 0.125 µg/mL (≈ 0.136 µM) | 1 µg/mL (≈ 1.09 µM) | 0.5 µg/mL (≈ 0.544 µM) | 0.25 µg/mL (≈ 0.272 µM) | 8 µg/mL (≈ 8.7 µM) | 2 µg/mL (≈ 2.17 µM) | 0.125 µg/mL (≈ 0.136 µM) | 8 µg/mL (≈ 8.7 µM) | MIC [15]: 1 µg/mL (≈ 1.09 µM); MIC [16]: 0.125 µg/mL (≈ 0.136 µM); MIC [17]: 0.25 µg/mL (≈ 0.272 µM); MIC [18]: 1 µg/mL (≈ 1.09 µM); MIC [19]: 1 µg/mL (≈ 1.09 µM); MIC [20]: 0.063 µg/mL (≈ 0.0685 µM); MIC ([10]; KTCT1661, Bacillus subtilis KTCT 1661, MHB, 20 hours, read-out: MIC): 0.125 µg/mL (≈ 0.136 µM); MIC ([11]; KTCT3511, Enterococcus faecalis KTCT 3511, MHB, 20 hours, read-out: MIC): 0.125 µg/mL (≈ 0.136 µM); MIC ([12]; KTCT3958, Staphylococcus epidermidis KTCT 3958, MHB, 20 hours, read-out: MIC): 0.125 µg/mL (≈ 0.136 µM); MIC [21]: 0.063 µg/mL (≈ 0.0685 µM); MIC ([13]; KTCT2357, Acinetobacter calcoaceticus KTCT 2357, MHB, 20 hours, read-out: MIC): 0.25 µg/mL (≈ 0.272 µM); MIC ([14]; KTCT2742, Pseudomonas aeruginosa KTCT 2742, MHB, 20 hours, read-out: MIC): 32 µg/mL (≈ 34.8 µM); MIC [22]: 8 µg/mL (≈ 8.7 µM); MIC [23]: 0.06 to 1 µg/mL (≈ 0.0652 to 1.09 µM); MIC [24]: 0.1 to 1 µg/mL (≈ 0.109 to 1.09 µM); MIC [25]: 0.5 to 1 µg/mL (≈ 0.544 to 1.09 µM); MIC [26]: 8 to 32 µg/mL (≈ 8.7 to 34.8 µM); antimicrobial activity against VRE [27]: confirmed; antimicrobial activity against VISA [28]: confirmed
